Measurements taken from patent US10328053B2 (Gilead Sciences, Inc., priority 2016, dated 2019).

Columns and labels:
[1] = Hepatic Stability Assay (in vitro half-life method); assay type: in vitro ADME; design: dose or concentration left out as unconfirmed; settings: pooled cryopreserved hepatocytes, 37° C., 1×10^6 cells/mL, 0-6 hours, LC-MS/MS, 39.5 hours is the maximum detectable half life, read-out: t½ (converted)
Summary of the method: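 Pooled cryopreserved hepatocytes (1×10^6 cells/mL) incubated with compound at […] test concentration, 37° C.; samples at 0, 1, 3 and 6 h quantified by LC-MS/MS. Half-life from rate of compound disappearance, scaled to predicted hepatic clearance via well-stirred model.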

[2] = tested on: HBV AD38 viral particles in HepG2 cell line overexpressing NTCP; assay: HBV DNA Quantification Assay; assay type: cell-based; settings: Hepatitis B virus, HepG2, 120 h, HBV-infected HepG2-NTCP cells, 5 days incubation, HBV DNA in culture supernatant (QuantiGene 2.0); geometric mean of a minimum of four determinations
Description: HBV DNA Quantification Assay
A HepG2 cell line overexpressing the HBV virus attachment receptor sodium-taurocholate cotransporting polypeptide (NTCP) was grown to confluency in DMEM growth medium, Dulbecco's Modified Eagle Medium without sodium pyruvate (Life Technologies, Rockville, Md.) supplemented with 10% FBS (Thermo Scientific, Waltham, Md.), 1% penicillin/streptomycin (Life Technologies, Rockville, Md.) and 2 mM L-glutamine (Life Technologies, Rockville, Md.) in T175 flasks. Cells were infected with HBV AD38 viral particles (Texcell, Frederick, USA) at 4000 genome equivalents per cell. After allowing viral infection to take place for 4 days, the infected cells were harvested from the flasks by trypsinization, washed twice with OptiMEM (Life Technologies, Rockville, Md.) and re-suspended in DMEM containing 2% FBS and 1% DMSO at a density of 0.25E6 cells/ml. Infected cells were seeded on 384 well collagen coated plates (Greiner, Austria) at a density of 20,000 cells/well containing serially diluted compounds of the present disclosure or DMSO (0.5%) in a final volume of 80 μl. The assay plates were incubated for a period of 5 days and the antiviral activity of the test compounds were assayed by detecting the presence of HBV DNA in the culture supernatant using the QuantiGene™ 2.0 nucleic acid quantification kit (Affymetrix, Santa Clara, Calif.).
The culture supernatant was harvested and treated with lysis buffer containing Proteinase K (Affymetrix, Santa Clara, Calif.). The supernatant was incubated with HBV viral DNA specific probes (Affymetrix, Santa Clara, Calif.) for 30 minutes at 55° C. This was followed by addition of 0.2M NaOH for 30 minutes at room temperature to denature the DNA, followed by addition of Neutralization buffer (Affymetrix, Santa Clara, Calif.). The resulting lysed and neutralized supernatant was then added to QuantiGene™ 2.0 384 well plates coated with capture oligonucleotides and incubated overnight at 55° C. The HBV specific probe set consists of Capture Extender oligonucleotides (CE's) and blocking probes. Following the overnight incubation, the wells were incubated for one hour sequentially with a Pre-Amplifier, Amplifier and Labeled probes conjugated to alkaline phosphatase with a wash step between incubations. After the final wash step, the alkaline phosphatase substrate (Luminol APS5) was added and the resulting luminescence signal was read in an EnVision Multilabel Plate Reader (PerkinElmer, Santa Clara, Calif.). The EC50 values were calculated from the fit of the dose—response curves to a four-parameter equation. All EC50 values represent geometric mean values of a minimum of four determinations.

| SMILES | half-life [1] [h] | EC50 [2] [nM] |
| --- | --- | --- |
| CNC(=O)C1(NC(=O)C(=O)c2c(C)c(C(=O)Nc3ccc(F)c(Cl)c3)n3c2[C@@H]2C[C@@H]2C3)CC(F)(F)C1 [Example 33, (1aS,6bR)—N-(3-chloro-4-fluorophenyl)-6-(2-((3,3-difluoro-1-(methylcarbamoyl)cyclobutyl)amino)-2-oxoacetyl)-5-methyl-1,1a,2,6b-tetrahydrocyclopropa[a]pyrrolizine-4-carboxamide] | 4.3 | 27.2 |
| Cc1c(C(=O)C(=O)NC2(c3c[nH]nn3)CC(F)(F)C2)c2n(c1C(=O)Nc1ccc(F)c(C#N)c1)[C@@H]1C[C@@H]1C2 [Example 41, (1aR,6aR)—N-(3-cyano-4-fluorophenyl)-5-(2-((3,3-difluoro-1-(1H-1,2,3-triazol-4-yl)cyclobutyl)amino)-2-oxoacetyl)-4-methyl-1,1a,6,6a-tetrahydrocyclopropa[b]pyrrolizine-3-carboxamide] | 4.9 | 7.5 |
| C#CC1(NC(=O)C(=O)c2c(C)c(C(=O)Nc3ccc(F)c(Cl)c3)n3c2CCC3)CC1 [Example 94, N-(3-chloro-4-fluorophenyl)-7-(2-((1-ethynylcyclopropyl)amino)-2-oxoacetyl)-6-methyl-2,3-dihydro-1H-pyrrolizine-5-carboxamide] | 2.9 | 5.8 |
| Cc1c(C(=O)C(=O)NC2(CNC3(C)CS(=O)(=O)C3)CC(F)(F)C2)c2n(c1C(=O)Nc1ccc(F)c(Cl)c1)CCC2 [Example 8, N-(3-chloro-4-fluorophenyl)-7-(2-((3,3-difluoro-1-(((3-methyl-1,1-dioxidothietan-3-yl)amino)methyl)cyclobutyl)amino)-2-oxoacetyl)-6-methyl-2,3-dihydro-1H-pyrrolizine-5-carboxamide] | 0.4 | 72 |
| Cc1c(C(=O)C(=O)NC2(c3nncs3)CC2)c2n(c1C(=O)Nc1ccc(F)c(Cl)c1)[C@@H]1C[C@@H]1C2 [Example 54, (1aR,6aR)-5-(2-((1-(1,3,4-thiadiazol-2-yl)cyclopropyl)amino)-2-oxoacetyl)-N-(3-chloro-4-fluorophenyl)-4-methyl-1,1a,6,6a-tetrahydrocyclopropa[b]pyrrolizine-3-carboxamide] | 6.7 | 7.8 |
| Cc1c(C(=O)C(=O)NC2(c3c[nH]nn3)CC2)c2n(c1C(=O)Nc1cccc(C#N)c1)CCC2 [Example 75, 7-(2-((1-(1H-1,2,3-triazol-4-yl)cyclopropyl)amino)-2-oxoacetyl)-N-(3-cyanophenyl)-6-methyl-2,3-dihydro-1H-pyrrolizine-5-carboxamide] | 17.3 | 106 |
| Cc1c(C(=O)C(=O)NC2(c3cnn[nH]3)CC2)c2n(c1C(=O)Nc1ccc(F)c(Cl)c1F)CCC2 [Example 84, 7-(2-((1-(1H-1,2,3-triazol-5-yl)cyclopropyl)amino)-2-oxoacetyl)-N-(3-chloro-2,4-difluorophenyl)-6-methyl-2,3-dihydro-1H-pyrrolizine-5-carboxamide] | 10.7 | 31 |
| Cc1c(C(=O)C(=O)NC2(C(=O)N3CC4(COC4)C3)CC(F)(F)C2)c2n(c1C(=O)Nc1ccc(F)c(Cl)c1)CCC2 [Example 27, N-(3-chloro-4-fluorophenyl)-7-(2-((3,3-difluoro-1-(2-oxa-6-azaspiro[3.3]heptane-6-carbonyl)cyclobutyl)amino)-2-oxoacetyl)-6-methyl-2,3-dihydro-1H-pyrrolizine-5-carboxamide] | 0.9 | 32.3 |
| Cc1c(C(=O)C(=O)NC2(c3nncs3)CC2)c2n(c1C(=O)Nc1ccnc(C(F)F)c1F)[C@@H]1C[C@@H]1C2 [Example 68, (1aR,6aR)-5-(2-((1-(1,3,4-thiadiazol-2-yl)cyclopropyl)amino)-2-oxoacetyl)-N-(2-(difluoromethyl)-3-fluoropyridin-4-yl)-4-methyl-1,1a,6,6a-tetrahydrocyclopropa[b]pyrrolizine-3-carboxamide] | 5.2 | 110 |
| Cc1c(C(=O)C(=O)NC2(c3c[nH]nn3)CC2)c2n(c1C(=O)Nc1cccc(Cl)c1F)CCC2 [Example 107, 7-(2-((1-(1H-1,2,3-triazol-4-yl)cyclopropyl)amino)-2-oxoacetyl)-N-(3-chloro-2-fluorophenyl)-6-methyl-2,3-dihydro-1H-pyrrolizine-5-carboxamide] | 9.8 | 146 |
| Cc1c(C(=O)C(=O)N[C@](C)(CO)C(F)(F)F)c2n(c1C(=O)Nc1ccc(F)c(Cl)c1)CCC2 [Example 132, (R)—N-(3-Chloro-4-fluorophenyl)-6-methyl-7-(2-oxo-2-((1,1,1-trifluoro-3-hydroxy-2-methylpropan-2-yl)amino)acetyl)-2,3-dihydro-1H-pyrrolizine-5-carboxamide] | 7.7 | 8.3 |
| Cc1c(C(=O)C(=O)NC2(c3nncs3)CC2)c2n(c1C(=O)Nc1cc(F)c(F)c(F)c1)[C@@H]1C[C@@H]1C2 [Example 57, (1aR,6aR)-5-(2-((1-(1,3,4-thiadiazol-2-yl)cyclopropyl)amino)-2-oxoacetyl)-4-methyl-N-(3,4,5-trifluorophenyl)-1,1a,6,6a-tetrahydrocyclopropa[b]pyrrolizine-3-carboxamide] | 8 | 9.9 |
| Cc1c(C(=O)C(=O)NC2(C)CS(=O)(=O)C2)c2n(c1C(=O)Nc1ccc(F)c(Cl)c1)CCC2 [Example 21, N-(3-chloro-4-fluorophenyl)-6-methyl-7-(2-((3-methyl-1,1-dioxidothietan-3-yl)amino)-2-oxoacetyl)-2,3-dihydro-1H-pyrrolizine-5-carboxamide] | 17.1 | 20.1 |
| Cc1c(C(=O)C(=O)NC2(C(=O)N3CCC34COC4)CC(F)(F)C2)c2n(c1C(=O)Nc1ccc(F)c(Cl)c1)CCC2 [Example 11, N-(3-chloro-4-fluorophenyl)-7-(2-((3,3-difluoro-1-(6-oxa-1-azaspiro[3.3]heptane-1-carbonyl)cyclobutyl)amino)-2-oxoacetyl)-6-methyl-2,3-dihydro-1H-pyrrolizine-5-carboxamide] | 0.7 | 7.7 |
| Cc1c(C(=O)C(=O)NC2(c3ccccc3)CC2)c2n(c1C(=O)Nc1ccc(F)c(Cl)c1)CCC2 [Example 66, N-(3-chloro-4-fluorophenyl)-6-methyl-7-(2-oxo-2-((1-phenylcyclopropyl)amino)acetyl)-2,3-dihydro-1H-pyrrolizine-5-carboxamide] | 1.4 | 6.5 |
| Cc1c(C(=O)C(=O)NC2(c3c[nH]nn3)COC2)c2n(c1C(=O)Nc1ccc(F)c(Cl)c1)CCC2 [Example 88, 7-(2-((3-(1H-1,2,3-triazol-4-yl)oxetan-3-yl)amino)-2-oxoacetyl)-N-(3-chloro-4-fluorophenyl)-6-methyl-2,3-dihydro-1H-pyrrolizine-5-carboxamide] | 9.9 | 8.7 |
| C#CC1(NC(=O)C(=O)c2c(C)c(C(=O)Nc3cc(F)c(F)c(F)c3)n3c2CCC3)CC1 [Example 92, 7-(2-((1-ethynylcyclopropyl)amino)-2-oxoacetyl)-6-methyl-N-(3,4,5-trifluorophenyl)-2,3-dihydro-1H-pyrrolizine-5-carboxamide] | 2.2 | 6.4 |
| Cc1c(C(=O)C(=O)NC2(c3c[nH]nn3)CC(F)(F)C2)c2n(c1C(=O)Nc1cc(F)c(F)c(F)c1)CCC2 [Example 53, 7-(2-((3,3-difluoro-1-(1H-1,2,3-triazol-4-yl)cyclobutyl)amino)-2-oxoacetyl)-6-methyl-N-(3,4,5-trifluorophenyl)-2,3-dihydro-1H-pyrrolizine-5-carboxamide] | 10.8 | 3.2 |
| Cc1c(C(=O)C(=O)NC2(C(F)(F)F)COC2)c2n(c1C(=O)Nc1ccc(F)c(Cl)c1)CCC2 [Example 7, N-(3-chloro-4-fluorophenyl)-6-methyl-7-(2-oxo-2-((3-(trifluoromethyl)oxetan-3-yl)amino)acetyl)-2,3-dihydro-1H-pyrrolizine-5-carboxamide] | 4.8 | 5.8 |
